In paper PMC5864050 (PLoS ONE, 2018):
Structures can show the parent of a compound that is named as a salt. Where two headings read alike, the source gives them in different places.

What was measured:
MERS-CoV [1] = details: read-out: EC50, MERS-CoV infection; cited from earlier work
MERS-CoV [2] = assay type: cell-based, MERS-CoV Jordan strain (Hu/Jordan-N3/2012)
MERS-CoV [3] = assay type: cell-based, MERS-CoV Jordan strain (Hu/Jordan-N3/2012); remark: listed apart in the source
MERS-CoV [4] = test: microbe, parasite or virus in culture; assay type: cell-based, MERS-CoV Jordan strain (Hu/Jordan-N3/2012); details: for EC50: Middle East respiratory syndrome-related coronavirus
Vero E6 cells = details: cited from earlier work
MERS-CoV [5] = assay type: cell-based, MERS-CoV Jordan strain (Hu/Jordan-N3/2012); remark: listed apart in the source
Huh 7 cells = details: cited from earlier work
in vitro = details: human
MERS-CoV [6] = details: cited from earlier work
MERS-CoV and SARS-CoV = details: cited from earlier work
SARS-CoV = details: cited from earlier work

| SMILES | EC50 (MERS-CoV [1]) | virus yield reduction (TCID50) (MERS-CoV [2]) | activity against MERS-CoV infection by virus yield reduction (in words) (MERS-CoV [3]) | virus yield reduction (TCID50), drop (MERS-CoV [3]) | selectivity index (SI = CC50÷EC50) (MERS-CoV [4]) | EC50 (MERS-CoV [4]; read-out: EC50, antiviral activity against MERS-CoV) | cytotoxicity (in words) (Vero E6 cells) | virus yield reduction (TCID50) (MERS-CoV [5]) | CC50 (Huh 7 cells) | cytotoxicity (in words) (immature MDDCs) | CC50 (in vitro) | EC50 (MERS-CoV [6]) | toxicity (in words) (MERS-CoV and SARS-CoV) | EC50 (SARS-CoV) | EC50, antiviral activity against MERS-CoV (MERS-CoV [4]) | EC50 (MERS-CoV [4]) |
| --- | --- | --- | --- | --- | --- | --- | --- | --- | --- | --- | --- | --- | --- | --- | --- | --- |
| CN(C)CCCN1c2ccccc2Sc2ccc(Cl)cc21 [CPZ, Chlorpromazine hydrochloride] | 4.9 µM | ~2 log10 | active | 3.1 log10 | 1.9 | 13.6 µM | low cytotoxicity | ~2 log10 | 21.3 µM | high cytotoxicity | 25.6 µM | 9.5 µM | – | – | – | – |
| CCN(CC)CCCC(C)Nc1ccnc2cc(Cl)ccc12 (stereo not drawn) [CQ, chloroquine diphosphate salt] | – | no virus yield reduction | not active | – | – | – | – | no virus yield reduction | – | – | – | 6.3 µM | low toxicity | – | – | – |
| CN(C)CCOc1ccc(/C(=C(/CCCl)c2ccccc2)c2ccccc2)cc1 [TOMF, Toremifene citrate] | – | 1–1.5 log10 | not active | – | – | – | – | 1–1.5 log10 | – | – | 22.5 µM | – | – | 12 µM | too low to determine an EC50 | 38 µM |
